From ChEMBL document CHEMBL5500372, “Novel natural osthole-inspired amphiphiles as membrane targeting antibacterials against methicillin-resistant Staphylococcus aureus (MRSA)” (Eur J Med Chem, 2024)
The source made the active and inactive calls. The rule behind the calls is not given here.

Tests used:
[1] = Toxicity in female KM mouse skin abscess model infected with methicillin-resistant Staphylococcus aureus clinical isolate 16 assessed as effect on heart at 5 to 10 mg/kg, sc measured after 24 hrs by H and E staining based analysis; format: organism-based; conditions: in vivo, dose 5-10 mg/kg
[2] = Toxicity in female KM mouse assessed as redness in skin at 40 to 80 mg/kg, sc measured after 24 hrs; format: organism-based; conditions: in vivo, dose 40-80 mg/kg
Staphylococcus aureus [3] = assay: Antibacterial activity against methicillin-resistant Staphylococcus aureus clinical isolate 23 measured after 18 hrs by CLSI based broth microdilution method; format: functional
[4] = Toxicity in female KM mouse assessed as effect on kidney at 20 mg/kg, sc measured after 24 hrs by H and E staining based analysis; format: organism-based; conditions: in vivo
Cell membrane [5] = assay: Induction of cell membrane disruption in methicillin-resistant Staphylococcus aureus clinical isolate 16 assessed as dead cells (Q1 region) at 4 ug/ml measured after 2 hrs by SYTO-9 and PI staining based flow cytometry analysis (reference value: 0%); format: cell membranes; conditions: dose 4.0 µg/ml
[6] = Toxicity in female KM mouse skin abscess model infected with methicillin-resistant Staphylococcus aureus clinical isolate 16 assessed as histological abnormalities in kidney at 5 to 10 mg/kg, sc measured after 24 hrs by H and E staining based analysis; format: organism-based; conditions: in vivo, dose 5-10 mg/kg
[7] = Toxicity in female KM mouse assessed as effect on histopathological abnormalities in back skin at 20 mg/kg, sc measured after 24 hrs by H and E staining based analysis; format: organism-based; conditions: in vivo
Staphylococcus aureus [8] = assay: Antibacterial activity against methicillin-resistant Staphylococcus aureus clinical isolate 16 infected in female KM mouse skin abscess model assessed as effect on abscess in intradermal tissue at 5 mg/kg, sc measured after 24 hrs; format: functional, organism-based
[9] = Toxicity in female KM mouse assessed as effect on histopathological abnormalities in spleen at 20 mg/kg, sc measured after 24 hrs by H and E staining based analysis; format: organism-based; conditions: in vivo
[10] = Stability in 50% sheep blood plasma measured after 6 hrs; format: ADME, cell-free, Ovis aries
Cell membrane [11] = assay: Induction of cell membrane disruption in methicillin-resistant Staphylococcus aureus clinical isolate 16 assessed as dead cells (Q1 region) at 64 ug/ml measured after 2 hrs by SYTO-9 and PI staining based flow cytometry analysis (reference value: 0%); format: cell membranes; conditions: dose 64.0 µg/ml
Staphylococcus aureus [12] = assay: Antibacterial activity against methicillin-resistant Staphylococcus aureus clinical isolate 16 infected in female KM mouse skin abscess model assessed as reduction in bacterial load at 10 mg/kg, sc measured after 24 hrs relative to control; format: functional; design: scale not given: the % may be the effect or the level left
Staphylococcus aureus [13] = assay: Antibacterial activity against methicillin-resistant Staphylococcus aureus clinical isolate 22 measured after 18 hrs by CLSI based broth microdilution method; format: functional
Cell membrane [14] = assay: Induction of cell membrane disruption in methicillin-resistant Staphylococcus aureus clinical isolate 16 assessed as dead cells (Q1 region) at 32 ug/ml measured after 2 hrs by SYTO-9 and PI staining based flow cytometry analysis (reference value: 0%); format: cell membranes; conditions: dose 32.0 µg/ml
Staphylococcus aureus [15] = assay: Antibacterial activity against Staphylococcus aureus ATCC 29213 at sub-MIC concentration measured after 20 passages by CLSI micro broth dilution method; format: functional, organism-based
[16] = Toxicity in female KM mouse assessed as effect on UREA at upto 20 mg/kg, sc measured after 24 hrs by biochemical test; format: organism-based; conditions: in vivo
[17] = Toxicity in female KM mouse skin abscess model infected with methicillin-resistant Staphylococcus aureus clinical isolate 16 assessed as effect on kidney at 5 to 10 mg/kg, sc measured after 24 hrs by H and E staining based analysis; format: organism-based; conditions: in vivo, dose 5-10 mg/kg
Staphylococcus aureus [18] = assay: Antibacterial activity against methicillin-resistant Staphylococcus aureus clinical isolate 21 measured after 18 hrs by CLSI based broth microdilution method; format: functional
[19] = Toxicity in female KM mouse skin abscess model infected with methicillin-resistant Staphylococcus aureus clinical isolate 16 assessed as effect on spleen at 5 to 10 mg/kg, sc measured after 24 hrs by H and E staining based analysis; format: organism-based; conditions: in vivo, dose 5-10 mg/kg
Staphylococcus aureus [20] = assay: Antibacterial activity against methicillin-resistant Staphylococcus aureus clinical isolate 16 infected in female KM mouse skin abscess model assessed as reduction in TNF-alpha level at 5 to 10 mg/kg, sc measured after 24 hrs by ELISA method; format: functional, organism-based; conditions: dose 5-10 mg/kg
Staphylococcus aureus [21] = assay: Antibacterial activity against methicillin-resistant Staphylococcus aureus clinical isolate 16 infected in female KM mouse skin abscess model assessed as smooth skin on back at 10 mg/kg, sc measured after 24 hrs; format: functional, organism-based
Staphylococcus aureus [22] = assay: Antibacterial activity against methicillin-resistant Staphylococcus aureus clinical isolate 16 infected in female KM mouse skin abscess model assessed as log reduction in bacterial load at 10 mg/kg, sc measured after 24 hrs (reference value: 8.508 log10CFU/g); format: functional
Cell membrane [23] = assay: Induction of cell membrane disruption in methicillin-resistant Staphylococcus aureus clinical isolate 16 assessed as intact cells (Q3 region) at 32 ug/ml measured after 2 hrs by SYTO-9 and PI staining based flow cytometry analysis (reference value: 96.0%); format: cell membranes; conditions: dose 32.0 µg/ml
[24] = Toxicity in female KM mouse assessed as effect on liver at 20 mg/kg, sc measured after 24 hrs by H and E staining based analysis; format: organism-based; conditions: in vivo
Cell membrane [25] = assay: Disruption of cell membrane in methicillin-resistant Staphylococcus aureus clinical isolate 16 assessed as increase in protein leakage incubated for 4 hrs by microspectrophotometric analysis; format: cell membranes; conditions: dose <= 8.0 µg/ml
Staphylococcus aureus [26] = assay: Antibacterial activity against methicillin-resistant Staphylococcus aureus clinical isolate 16 infected in female KM mouse skin abscess model assessed as effect on skin lesions at 10 mg/kg, sc measured after 24 hrs; format: functional, organism-based
Staphylococcus aureus [27] = assay: Antibacterial activity against methicillin-resistant Staphylococcus aureus clinical isolate 16 infected in female KM mouse skin abscess model assessed as reduction in infiltration of inflammatory cells in subcutaneous tissue at 10 mg/kg, sc measured after 24 hrs by H and E staining based analysis; format: functional, organism-based
[28] = Toxicity in female KM mouse assessed as effect on hemoglobin at upto 20 mg/kg, sc measured after 24 hrs; format: organism-based; conditions: in vivo
Cell membrane [29] = assay: Induction of cell membrane disruption in methicillin-resistant Staphylococcus aureus clinical isolate 16 assessed as intact cells (Q3 region) at 4 ug/ml measured after 2 hrs by SYTO-9 and PI staining based flow cytometry analysis (reference value: 96.0%); format: cell membranes; conditions: dose 4.0 µg/ml
[30] = Toxicity in female KM mouse assessed as adverse reaction in skin at 20 mg/kg, sc measured after 24 hrs; format: organism-based; conditions: in vivo
Cell membrane [31] = assay: Disruption of cell membrane in methicillin-resistant Staphylococcus aureus clinical isolate 16 assessed as increase in red fluorescence at 8 times MIC measured after 4 hrs by DAPI and PI staining based laser confocal microscopy based analysis; format: cell membranes
Staphylococcus aureus [32] = assay: Antibacterial activity against methicillin-resistant Staphylococcus aureus clinical isolate 12 measured after 18 hrs by CLSI based broth microdilution method; format: functional
[33] = Toxicity in female KM mouse assessed as effect on spleen at 20 mg/kg, sc measured after 24 hrs by H and E staining based analysis; format: organism-based; conditions: in vivo
Staphylococcus aureus [34] = assay: Antibacterial activity against methicillin-resistant Staphylococcus aureus clinical isolate 20 measured after 18 hrs by CLSI based broth microdilution method; format: functional
Staphylococcus aureus [35] = assay: Antibacterial activity against methicillin-resistant Staphylococcus aureus clinical isolate 16 measured after 18 hrs in presence of phosphatidylethanolamine by checkerboard broth dilution method; format: functional, organism-based

For `CCCCCCNC(=O)C[N+](C)(C)CCCCCOc1ccc2ccc(=O)oc2c1CC=C(C)C.[Br-]`, the Activity [1] was “Non-Toxic”, the Activity [2] was “Toxic” and the MIC (Staphylococcus aureus [3]) was 2 mg/L. The Activity [4] was “Non-Toxic”, the Activity (Cell membrane [5]) was 0.12% and the Activity [6] was “Non-Toxic”. For the same compound, the Activity [7] was “Non-Toxic”, the Activity (Staphylococcus aureus [8]) was “Active” and the Activity [9] was “Non-Toxic”. For the same compound, the Stability [10] was “Stable”, the Activity (Cell membrane [11]) was 96.2% and the Activity (Staphylococcus aureus [12]) was 99.998%. For the same compound, the MIC (Staphylococcus aureus [13]) was 1 mg/L, the Activity (Cell membrane [14]) was 61.7% and the Activity (Staphylococcus aureus [15]) was “inactive”. For the same compound, the Activity [16] was “Non-Toxic”, the Activity [17] was “Non-Toxic” and the MIC (Staphylococcus aureus [18]) was 2 mg/L. The Activity [19] was “Non-Toxic”, the Activity (Staphylococcus aureus [20]) was “Active” and the Activity (Staphylococcus aureus [21]) was “Active”. For the same compound, the Activity (Staphylococcus aureus [22]) was 4.458 log10CFU/g, the Activity (Cell membrane [23]) was 0.05% and the Activity [24] was “Non-Toxic”. For the same compound, the Activity (Cell membrane [25]) was “Dose-Dependent Effect”, the Activity (Staphylococcus aureus [26]) was “inactive” and the Activity (Staphylococcus aureus [27]) was “Active”. For the same compound, the Activity [28] was “Non-Toxic”, the Activity (Cell membrane [29]) was 76.9% and the Activity [30] was “Non-Toxic”. The Activity (Cell membrane [31]) was “Active”, the MIC (Staphylococcus aureus [32]) was 2 mg/L and the Activity [33] was “Non-Toxic”. The MIC (Staphylococcus aureus [34]) was 2 mg/L and the Activity (Staphylococcus aureus [35]) was “Active”.
